According to patent US8642592B2, “Oxo-heterocyclically substituted alkyl carboxylic acids and use thereof” (Bayer Intellectual Property GmbH, priority 2009, dated 2014):

Legend:
Heme-free sGC = target: T1, Heme-free sGC (Rattus norvegicus, UniProt P20595); assay: Stimulation of recombinant soluble guanylate cyclase in vitro, heme-free enzyme; type: biochemical
T1 construct: made in house; host or cells: baculovirus/Sf9 insect cells
T1 sequence (P20595 1-619): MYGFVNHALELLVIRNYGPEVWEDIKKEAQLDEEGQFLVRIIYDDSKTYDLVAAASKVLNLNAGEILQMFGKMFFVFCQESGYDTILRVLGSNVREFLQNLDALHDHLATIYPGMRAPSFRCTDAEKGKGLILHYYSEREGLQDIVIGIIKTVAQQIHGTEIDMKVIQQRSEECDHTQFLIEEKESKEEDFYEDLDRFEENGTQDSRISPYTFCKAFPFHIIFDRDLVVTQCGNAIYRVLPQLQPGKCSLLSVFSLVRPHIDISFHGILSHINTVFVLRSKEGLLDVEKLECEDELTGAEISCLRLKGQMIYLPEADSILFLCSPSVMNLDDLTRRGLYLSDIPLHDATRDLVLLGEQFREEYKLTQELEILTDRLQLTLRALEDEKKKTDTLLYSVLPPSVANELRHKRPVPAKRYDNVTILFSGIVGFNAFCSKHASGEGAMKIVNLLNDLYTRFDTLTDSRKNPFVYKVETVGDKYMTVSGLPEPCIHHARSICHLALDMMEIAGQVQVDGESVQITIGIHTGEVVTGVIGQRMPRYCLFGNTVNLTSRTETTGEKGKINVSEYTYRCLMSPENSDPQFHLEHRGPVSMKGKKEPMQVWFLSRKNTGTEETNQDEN
T1 sequence (P19686 1-690 partner): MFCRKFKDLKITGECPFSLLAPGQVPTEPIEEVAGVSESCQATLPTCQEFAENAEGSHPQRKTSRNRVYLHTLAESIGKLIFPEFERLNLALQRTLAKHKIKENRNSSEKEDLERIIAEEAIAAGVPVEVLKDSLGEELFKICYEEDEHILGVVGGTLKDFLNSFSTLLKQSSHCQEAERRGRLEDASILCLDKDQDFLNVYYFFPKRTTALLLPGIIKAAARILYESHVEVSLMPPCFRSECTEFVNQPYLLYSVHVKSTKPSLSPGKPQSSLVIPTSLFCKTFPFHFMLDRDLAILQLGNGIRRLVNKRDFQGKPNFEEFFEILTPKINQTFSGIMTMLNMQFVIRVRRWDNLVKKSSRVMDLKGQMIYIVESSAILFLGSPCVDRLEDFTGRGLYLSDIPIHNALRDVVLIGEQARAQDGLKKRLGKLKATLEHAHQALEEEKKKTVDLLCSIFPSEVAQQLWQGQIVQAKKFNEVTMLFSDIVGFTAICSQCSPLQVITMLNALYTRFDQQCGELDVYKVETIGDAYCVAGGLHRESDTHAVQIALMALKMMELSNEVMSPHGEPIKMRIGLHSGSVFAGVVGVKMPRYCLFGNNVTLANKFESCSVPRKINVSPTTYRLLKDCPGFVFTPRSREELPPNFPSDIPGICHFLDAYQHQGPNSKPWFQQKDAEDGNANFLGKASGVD
Method: Investigations on the stimulation of recombinant soluble guanylate cyclase (sGC) by the compounds according to the invention with and without sodium nitroprusside, and with and without the heme-dependent sGC inhibitor 1H-1,2,4-oxadiazolo-(4,3a)-quinoxalin-1-one (ODQ) are carried out by the method described in detail in the following reference: M. Hoenicka, E. M. Becker, H. Apeler, T. Sirichoke, H. Schroeder, R. Gerzer and J.-P. Stasch, “Purified soluble guanylyl cyclase expressed in a baculovirus/Sf9 system: Stimulation by YC-1, nitric oxide, and carbon oxide”, J. Mol. Med. 77 (1999), 14-23. The heme-free guanylate cyclase is obtained by adding Tween 20 to the sample buffer (0.5% in the final concentration).
The activation of sGC by a test substance is reported as n-fold stimulation of the basal activity.

[1] = target: T2, soluble guanylate cyclase (sGC) (Rattus norvegicus, UniProt P20595); assay: Stimulation of sGC enzyme activity (PPi/luciferase detection); type: biochemical; details: sGC enzyme in vitro
T2 construct: made in house; host or cells: baculovirus/Sf9 insect cells
T2 sequence (P20595 1-619): T1 sequence (P20595 1-619)
T2 sequence (P19686 1-690 partner): T1 sequence (P19686 1-690 partner)
Method: Soluble guanylate cyclase (sGC) converts on stimulation GTP into cGMP and pyrophosphate (PPi). PPi is detected with the aid of the assay described below. The signal produced in the assay increases as the reaction progresses and serves as a measure of the sGC enzyme activity under the given stimulation.
To carry out the assay, 29 μl of enzyme solution [0-10 nM soluble guanylate cyclase (prepared according to Honicka et al., J. Mol. Med. 77, 14-23 (1999)) in 50 mM TEA, 2 mM MgCl2, 0.1% BSA (fraction V), 0.005% Brij®, pH 7.5] are initially introduced into a microplate, and 1 μl of the substance to be tested (as a serially diluted solution in DMSO) is added. The mixture is incubated at room temperature for 10 min. Then 20 μl of detection mix [1.2 nM Firefly Luciferase (Photinus pyralis luciferase, Promega), 29 μM dehydroluciferin (prepared according to Bitler & McElroy, Arch. Biochem. Biophys. 72, 358 (1957)), 122 μM luciferin (Promega), 153 μM ATP (Sigma) and 0.4 mM DTT (Sigma) in 50 mM TEA, 2 mM MgCl2, 0.1% BSA (fraction V), 0.005% Brij®, pH 7.5] are added. The enzyme reaction is started by adding 20 μl of substrate solution [1.25 mM guanosine 5′-triphosphate (Sigma) in 50 mM TEA, 2 mM MgCl2, 0.1% BSA (fraction V), 0.005% Brij®, pH 7.5] and measured continuously in a luminometer. The extent of the stimulation by the substance to be tested can be determined relative to the signal of the unstimulated reaction.
The activation of heme-free guanylate cyclase is examined by addition of 25 μM of 1H-1,2,4-oxadiazolo[4,3-a]quinoxalin-1-one (ODQ) to the enzyme solution and subsequent incubation for 30 minutes and compared to the stimulation of the native enzyme.

**Q.** For O=C(NCCCCC1(C(=O)O)CC1)C(c1ccc(CN2N=C(c3ccccc3)OCC2=O)cc1)C1CCCC1 (single isomer, unassigned; (+)) [Example 1, (+)-1-(4-{[2-cyclopentyl-2-{4-[(5-oxo-2-phenyl-5,6-dihydro-4H-1,3,4-oxadiazin-4-yl)methyl]phenyl}-acetyl]amino}butyl)cyclopropanecarboxylic acid], which “Stimulation (n-fold) of heme-free sGC, Basal” value (Heme-free sGC; 0.1 μM Example 1) is on record?
**A.** 1.4 n-fold

**Q.** And the “Stimulation (n-fold) of heme-free sGC, Basal” value (Heme-free sGC; 1 μM Example 1)?
**A.** 1.7 n-fold

**Q.** What about the “Stimulation (n-fold) of heme-free sGC, Basal” value (Heme-free sGC; 10 μM Example 1) of the same molecule?
**A.** 8.4 n-fold

**Q.** And the “Stimulation (n-fold) of heme-free sGC, Basal” value (Heme-free sGC; 100 μM Example 1)?
**A.** 111.8 n-fold

**Q.** What about the “MEC (minimum effective concentration), activating action at the sGC enzyme” value [1] of the same molecule?
**A.** 51 nM
